In US10323018B2 (Millennium Pharmaceuticals, Inc., priority 2015, dated 2019):
Where two headings read alike, the source gives them in different places.

Columns and labels:
PC3 cells = assay: PC3 growth inhibition (Cell-titer glo, 72 hours); type: cell-based; conditions: Homo sapiens, PC-3, 72 h, read-out: Percent Viability, PC3 cells, compound concentration 1.667 μM, 72 hours
Procedure: The invention also provides compounds that inhibit cell growth. The ability of a compound of the invention to inhibit the growth of cells can be measured using a variety of methods known in the art. For example, the ability of a compound of the invention to inhibit the growth of PC3 cells can be measured. PC3 cells can be plated and incubated overnight under CO2. For each measurement, a compound of the invention (or vehicle e.g., DMSO) can be diluted with AIM serum free medium and added to the cell plate. The cell plate can then be incubated for 72 h under CO2. Cell-titer glo solution can be added and the plates can be incubated protected from light and the amount of luminescences can be measured. Concentration response curves can be generated by calculating the luminescence increase in test compound treated samples relative to DMSO-treated controls. Percentage remaining viability values at a single concentration can be measured. Growth inhibition (GI50) or cell viability (LD50) values can be determined from thoses curves. In one embodiment, compounds of the invention have a percent viability in PC3 line @ 1.667 uM of <1%. In one embodiment, compounds of the invention have a percent viability in PC3 line @ 1.667 uM of <2%. In one embodiment, compounds of the invention have a percent viability in PC3 line @ 1.667 uM of <3%. In one embodiment, compounds of the invention have a percent viability in PC3 line @ 1.667 uM of <4%. In one embodiment, compounds of the invention have a percent viability in PC3 line @ 1.667 uM of <5%. In one embodiment, compounds of the invention have a percent viability in PC3 line @ 1.667 uM of <10%. In one embodiment, compounds of the invention have a percent viability in PC3 line @ 1.667 uM of <50%.
To measure PC3 growth inhibition, PC3 cells that were maintained in RPMI1640 growth medium (Life Technologies; Cat. No. 11875) at 37° C. under 5% CO2 are trypsinized and diluted at a density of 8×10^4 cells/ml, 25 ul per well of cells and plated in 384-well black tissue culture plate. The cells are incubated overnight at 37° C. under 5% CO2. For each measurement, a test compound or vehicle DMSO control is diluted with AIM serum free medium and added to the cell plate. The cell plate is incubated for 72 hours at 37° C. under 5% CO2. 25 μl Cell-titer glo solution (Promega; Cat. No. G8462) is added and the cell plates are incubated for 10 minutes protected from light. The luminescence is measured. Concentration response curves are generated by calculating the luminescence increase in test compound-treated samples relative to DMSO-treated controls. Percentage remaining viability values at a single concentration, growth inhibition (GI50) or cell viability (LD50) values are determined from those curves. One skilled in the art will appreciate that these values are subject to experimental variation.

hNAMPT protein = hNAMPT protein (Homo sapiens (Human), UniProt P43490); assay: NAMPT enzyme assay (TR-FRET/HTRF with BodiPY ligand); type: binding; conditions: for IC50: NAMPT inhibition, IC50 range class
Sequence of hNAMPT protein (P43490 whole entry): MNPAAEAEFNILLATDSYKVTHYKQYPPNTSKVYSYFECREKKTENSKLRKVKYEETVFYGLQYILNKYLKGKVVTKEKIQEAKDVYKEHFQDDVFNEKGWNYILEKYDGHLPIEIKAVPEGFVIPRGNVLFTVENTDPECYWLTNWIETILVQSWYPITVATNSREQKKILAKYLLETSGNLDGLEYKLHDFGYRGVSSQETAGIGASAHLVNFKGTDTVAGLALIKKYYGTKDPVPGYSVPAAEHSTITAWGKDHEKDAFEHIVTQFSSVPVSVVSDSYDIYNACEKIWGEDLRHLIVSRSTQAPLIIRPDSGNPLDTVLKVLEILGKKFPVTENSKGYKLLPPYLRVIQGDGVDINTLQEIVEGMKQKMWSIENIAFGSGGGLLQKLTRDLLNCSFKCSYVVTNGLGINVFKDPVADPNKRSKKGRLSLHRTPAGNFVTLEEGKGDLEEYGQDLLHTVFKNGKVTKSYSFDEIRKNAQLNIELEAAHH
Excerpt: As discussed above, the invention provides compounds that are useful as inhibitors of the enzyme NAMPT. The NAMPT inhibition of a compound of the invention can be measured using a variety of methods known in the art. For example, the ability of a compound of the invention to inhibit NAMPT enzyme activity can be measured using a homogeneous time resolved fluorescence (HTRF) assay using hNAMPT protein and anti 6His-Tb in buffer treated with a compound of the invention (or control e.g., DMSO) and BodiPY ligand. The TR-FRET signal can be measured using a high throughput microplate reader (e.g., Pherastar). Excitation can be carried out at 320 nm. The percent inhibition value at a single concentration of compound of the invention can be calculated relative to a control treated sample. A concentration response curve can be generated for each compound of the invention and the curve fitted to generate an IC50 value. […] To measure the inhibition of NAMPT activity hNAMPT protein stock and anti 6His-Tb (Cisbio; Cat. No. […]TLB) is diluted to 3× final concentration with assay buffer (50 mM Tris-HCl (pH 7.5), 1 mM DTT, 100 mM NaCl, 10 mM MgCl2, 0.005% Tween 20). To this solution is added a test compound or vehicle control (DMSO) and BodiPY ligand (structure below). The plate is shaken for 1-2 min sealed and incubated for 1 h at rt in the dark. The TR-FRET signal is measured using BMG Pherastar (Lanthascreen protocol on BMG Pherastar). Excitation was carried out at 320 nm, and the ratio of emission of BodiPY (520 nm) to terbium (486 nm) was determined. Concentration response curves are generated by calculating the excitation increase in test compound-treated samples relative to DMSO-treated controls. For the assay method described above, test compound percent inhibition values at a single concentration are calculated relative to control (DMSO) treated samples. Compound concentration response curves are fitted to generate IC50 values from those curves. One skilled in the art will appreciate that these values generated either as percentage inhibition at a single concentration or IC50 values are subject to experimental variation.

[1] = NAMPT inhibition at compound concentration 1 μM, read-out: Percent Inhibition

Compound | viability at 1.667 µM (PC3 cells) [%] | inhibition at 1 µM (hNAMPT protein; [1]) [%] | IC50 (hNAMPT protein) [nM] | inhibition at 1 µM (hNAMPT protein; read-out: Percent Inhibition) [%] | inhibition at 0.33 µM (hNAMPT protein; NAMPT inhibition at compound concentration 0.33 μM, read-out: Percent Inhibition) [%]
CCOc1cc(-c2ccc(Cl)s2)nc2cc(C(=O)NCCCc3nnc[nH]3)ccc12 [Compound I-125, 2-(5-chloro-2-thienyl)-4-ethoxy-N-[3-(4H-1,2,4-triazol-3-yl)propyl]quinoline-7-carboxamide] | 2 | 100 | < 10 | – | –
CCOc1cc(-c2ccc(F)cc2)nc2cc(C(=O)NCc3ccn4ncnc4c3)ccc12 [Compound I-130, 4-ethoxy-2-(4-fluorophenyl)-N-([1,2,4]triazolo[1,5-a]pyridin-7-ylmethyl)quinoline-7-carboxamide] | 2 | 100 | < 10 | – | –
CCOc1cc(-c2cccnc2OC)nc2cc(C(=O)NCc3nc4ccncc4[nH]3)ccc12 [Compound I-192, 4-ethoxy-N-(3H-imidazo[4,5-c]pyridin-2-ylmethyl)-2-(2-methoxypyridin-3-yl)quinoline-7-carboxamide] | 3 | 100 | < 10 | – | –
COc1cc(-c2nc(-c3ccc(F)cc3)nc3cc(C(=O)NCCCc4ncc[nH]4)ccc23)ccn1 [Compound I-196, 2-(4-fluorophenyl)-N-[3-(1H-imidazol-2-yl)propyl]-4-(2-methoxypyridin-4-yl)quinazoline-7-carboxamide] | 1 | 100 | < 10 | – | –
CCOc1cc(-c2ccc(F)cc2)nc2cc(C(=O)NCc3nc4cnccc4[nH]3)ccc12 [Compound I-14, 4-ethoxy-2-(4-fluorophenyl)-N-(1H-imidazo[4,5-c]pyridin-2-ylmethyl)quinoline-7-carboxamide] | 1 | > 99 | < 10 | – | –
CCOc1cc(-c2ccc(F)cc2)nc2cc(C(=O)NCCc3ccc(C#N)cc3)ccc12 [Compound I-47, N-[2-(4-cyanophenyl)ethyl]-4-ethoxy-2-(4-fluorophenyl)quinoline-7-carboxamide] | 99 | 47 | < 10 | – | –
CCOc1cc(-c2cc(OC)ncc2Cl)nc2cc(C(=O)NCCCc3nnc[nH]3)ccc12 [Compound I-164, 2-(5-chloro-2-methoxypyridin-4-yl)-4-ethoxy-N-[3-(4H-1,2,4-triazol-3-yl)propyl]quinoline-7-carboxamide] | 2 | 97 | < 10 | – | –
COCc1nc(-c2ccc(Cl)cc2)nc2cc(C(=O)NCCCc3ncc[nH]3)ccc12 [Compound I-25, 2-(4-chlorophenyl)-N-[3-(1H-imidazol-2-yl)propyl]-4-(methoxymethyl)quinazoline-7-carboxamide] | 0 | – | < 10 | 99 | –
CCOc1cc(-c2ccnc(OC)c2)nc2cc(C(=O)NCCc3cnn[nH]3)ccc12 [Compound I-195, 4-ethoxy-2-(2-methoxypyridin-4-yl)-N-[2-(1H-1,2,3-triazol-5-yl)ethyl]quinoline-7-carboxamide] | 19 | 89 | 50 to 100 | – | –
CCOc1nc(-c2ccc(Cl)cc2)nc2cc(C(=O)NCCCc3ncc[nH]3)ccc12 [Compound I-38, 2-(4-chlorophenyl)-4-ethoxy-N-[3-(1H-imidazol-2-yl)propyl]quinazoline-7-carboxamide] | 2 | > 99 | < 10 | – | –
CCOc1cc(-c2ccc(Cl)s2)nc2cc(C(=O)NCc3nc4cnccc4[nH]3)ccc12 [Compound I-175, 2-(5-chloro-2-thienyl)-4-ethoxy-N-(1H-imidazo[4,5-c]pyridin-2-ylmethyl)quinoline-7-carboxamide] | 2 | – | < 10 | – | 98
CCOc1cc(-c2ccc(C)nc2OC)nc2cc(C(=O)NCCCc3nc[nH]n3)ccc12 [Compound I-183, 4-ethoxy-2-(2-methoxy-6-methylpyridin-3-yl)-N-[3-(1H-1,2,4-triazol-3-yl)propyl]quinoline-7-carboxamide] | 2 | 94 | 50 to 100 | – | –
CCOc1cc(-c2ccc(F)cc2OC)nc2cc(C(=O)NCCCc3cnn[nH]3)ccc12 [Compound I-121, 4-ethoxy-2-(4-fluoro-2-methoxyphenyl)-N-[3-(1H-1,2,3-triazol-5-yl)propyl]quinoline-7-carboxamide] | 2 | > 99 | < 10 | – | –
Cc1cc(-c2nc(-c3ccc(F)cc3)nc3cc(C(=O)NCCCc4nnc[nH]4)ccc23)ccn1 [Compound I-162, 2-(4-fluorophenyl)-4-(2-methylpyridin-4-yl)-N-[3-(4H-1,2,4-triazol-3-yl)propyl]quinazoline-7-carboxamide] | 2 | 94 | 10 to 50 | – | –
CCOc1cc(-c2ccnc(C)c2)nc2cc(C(=O)NCc3ccc4ncnn4c3)ccc12 [Compound I-74, 4-ethoxy-2-(2-methylpyridin-4-yl)-N-([1,2,4]triazolo[1,5-a]pyridin-6-ylmethyl)quinoline-7-carboxamide] | 1 | 100 | < 10 | – | –
CCOc1cc(-c2ccc(C)nc2OC)nc2cc(C(=O)NCCCc3[nH]nnc3C)ccc12 [Compound I-94, 4-ethoxy-2-(2-methoxy-6-methylpyridin-3-yl)-N-[3-(4-methyl-1H-1,2,3-triazol-5-yl)propyl]quinoline-7-carboxamide] | 1 | 97 | 10 to 50 | – | –
CCOc1cc(-c2ccc(F)cc2)nc2cc(C(=O)NCCCc3cc[nH]n3)ccc12 [Compound I-204, 4-ethoxy-2-(4-fluorophenyl)-N-[3-(1H-pyrazol-3-yl)propyl]quinoline-7-carboxamide] | 2 | 100 | < 10 | – | –
CCOc1cc(-c2ccc(F)cc2)nc2cc(C(=O)NCCc3ccn[nH]3)ccc12 [Compound I-46, 4-ethoxy-2-(4-fluorophenyl)-N-[2-(1H-pyrazol-5-yl)ethyl]quinoline-7-carboxamide] | 3 | 97 | 10 to 50 | – | –
CCOc1nc(-c2ccc(F)cc2)nc2cc(C(=O)NCCCc3ncc[nH]3)ccc12 [Compound I-32, 4-ethoxy-2-(4-fluorophenyl)-N-[3-(1H-imidazol-2-yl)propyl]quinazoline-7-carboxamide] | 2 | > 99 | < 10 | – | –
